Data from PubChem BioAssay (NCI).
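Where inhibition never reached the appropriate level, the endpoint shown equals the highest concentration tested. Otherwise, values were interpolated linearly from a five-concentration, 48-hour dose response in 96-well plates. Definition used: TGI = concentration required for complete inhibition of growth.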

Columns and labels:
Experiment in all cases: NCI tumour cell line growth inhibition, 48 h
BT-549 breast = test system: BT-549 breast
786-0 renal = test system: 786-0 renal
DU-145 prostate = test system: DU-145 prostate
TK-10 renal = test system: TK-10 renal
SN12C renal = test system: SN12C renal
SF-295 CNS = test system: SF-295 CNS
UO-31 renal = test system: UO-31 renal
M14 melanoma = test system: M14 melanoma
HT29 colon = test system: HT29 colon
UACC-62 melanoma = test system: UACC-62 melanoma
RXF 393 renal = test system: RXF 393 renal

Structure (SMILES) | TGI (BT-549 breast) [µM] | TGI (786-0 renal) [µM] | TGI (DU-145 prostate) [µM] | TGI (TK-10 renal) [µM] | TGI (SN12C renal) [µM] | TGI (SF-295 CNS) [µM] | TGI (UO-31 renal) [µM] | TGI (M14 melanoma) [µM] | TGI (HT29 colon) [µM] | TGI (UACC-62 melanoma) [µM] | TGI (RXF 393 renal) [µM]
O=C(OCC(Cl)(Cl)Cl)O[C@@H]1CCCC1(c1ccccc1)c1ccccc1 | > 100 | > 100 | > 100 | > 100 | > 100 | > 100 | > 100 | > 100 | > 100 | > 100 | > 100
NC(Cc1ccc(S(=O)(=O)O)cc1)C(=O)NC(Cc1ccc(S(=O)(=O)O)cc1)C(=O)O (stereo not given) | > 100 | > 100 | > 100 | > 100 | > 100 | > 100 | > 100 | > 100 | > 100 | > 100 | > 100
O=C1c2cn[nH]c2C(c2ccccc2)N1c1ccccc1 (stereo not given) | > 10 | > 10 | > 10 | > 10 | > 10 | > 10 | > 10 | > 10 | > 10 | > 10 | > 10
COc1ccc(C(C2=C(O)COC2=O)c2cc3c(cc2O)OCO3)cc1OC (stereo not given) | > 100 | > 100 | > 100 | > 100 | > 100 | > 100 | > 100 | > 100 | > 100 | > 100 | > 100
CCc1nc2ccc(NCCN(C)C)c3c(=O)c4ccccc4n1c23 | 21.2 | 7.66 | 3.4 | 12.2 | 10.6 | 5.04 | 10 | 4.68 | 5.08 | 8.06 | 6.03
C[N+]1(CCN[N+]2(C)CCCCC2)CCc2ccccc2C1 (stereo not given) | > 100 | > 100 | > 100 | > 100 | > 100 | > 100 | > 100 | > 100 | > 100 | > 100 | > 100
S=C(Nc1ccc2cn[nH]c2c1)Nc1ccc2cn[nH]c2c1 | > 100 | > 100 | > 100 | > 100 | > 100 | > 100 | > 100 | > 100 | > 100 | > 100 | > 100
C[Si](C)(C)C1=C([Si](C)(C)C)C(Cl)(Cl)C1=O | 16.1 | 10 | 23.3 | 5.27 | 15.8 | 22.3 | 8.45 | 9.24 | 13.7 | 7.69 | 5.33
O=C(CCc1ccccc1)On1c(-c2ccccc2)nc2ccccc2c1=S | > 100 | > 100 | > 100 | > 100 | > 100 | > 100 | 39.3 | 44.7 | > 100 | 36.9 | 57.3
COc1ccc(C(OCC2OC(n3ccc(NC(=O)c4ccccc4)nc3=O)CC2OP2(=S)SCCS2)(c2ccccc2)c2ccc(OC)cc2)cc1 (stereo not given) | 53.6 | 82 | > 100 | > 100 | 58.6 | 97.9 | > 100 | 66.2 | 69.7 | 34.9 | 88.1
O=[N+]([O-])c1ccc(O)c(/C=N/NC(=S)N2CCCCC2)c1 | 63.4 | 13.8 | > 52.5 | 44 | > 41.9 | 28.7 | 4.58 | > 100 | 15 | > 30.5 | > 100
COc1ccc(/C=N/n2cnc3[nH]c(C)c(Cc4ccccc4)c3c2=N)cc1 | > 100 | > 100 | > 100 | > 100 | > 100 | > 100 | > 100 | > 100 | > 100 | > 100 | 79.3
O=c1[nH]cnc2c1nnn2CCCCCCCCCCCCn1nnc2c(=O)[nH]cnc21 | > 100 | 60.5 | > 100 | 50.7 | > 100 | 48.4 | > 100 | > 100 | > 100 | > 78 | > 50.5
COc1ccccc1C[C@@H]1OC2(C=CC(=O)C=C2)O[C@H]1Cc1ccccc1OC | 11.5 | 4.29 | > 50 | 27.4 | 23.4 | 22.9 | 12.7 | 17.5 | 16.7 | 23.2 | 3.81
COc1cc(C2c3cc4c(cc3OC(N3CCNCC3)C2C)OCO4)cc(OC)c1OC (stereo not given) | 30.2 | 15.7 | > 28.5 | > 100 | > 53.2 | 0.822 | 15.6 | 20 | 7.54 | 14.9 | 0.99
C[C@H]1S[C@H](c2c(Cl)cccc2Cl)N2Cc3ccccc3N=C12 | > 100 | 23 | 27.5 | 41.9 | > 100 | 21.9 | 26.3 | 32.4 |  | 26.1 | 30.4

Structure (SMILES) | TGI (BT-549 breast) [µM] | TGI (786-0 renal) [µM] | TGI (DU-145 prostate) [µM] | TGI (TK-10 renal) [µM] | TGI (SN12C renal) [µM] | TGI (SF-295 CNS) [µM] | TGI (UO-31 renal) [µM] | TGI (M14 melanoma) [µM] | TGI (HT29 colon) [µM] | TGI (UACC-62 melanoma) [µM] | TGI (RXF 393 renal) [µM]
COc1cc(-c2ccccc2N)c2cccnc2c1OC | 22.2 | 14.9 | 10.5 | 23.7 | 17.3 | 7.18 | 15 | 19.3 | 16.3 | 24.2 | 34.6
CC(C)(C)OC(=O)NCCCCC(NC(=O)c1ccccc1)C(N)=O (stereo not given) | > 100 | > 100 | > 100 | > 100 | > 100 | > 100 | > 100 | > 100 | > 100 | > 100 | > 100
NNC(=O)c1cc(=O)[nH][nH]1 | > 100 | > 100 | > 100 | > 100 | > 100 | > 100 | > 100 | > 100 | > 100 | > 100 | > 100
C[Si](C)(c1ccccc1)[C@H]1CCCC=C1CCNC1c2ccccc2CCc2ccccc21 | > 100 | > 100 | > 100 | > 100 | > 100 | > 100 | > 100 | > 100 | > 100 | > 100 | > 100
COc1cc2nc(-c3cccs3)[nH]c(=O)c2cc1OC | > 100 | > 100 | > 100 | > 100 | > 100 | > 100 | > 100 | > 100 | > 100 | > 100 | > 100
CCN(CC)c1ccc(/C=C/C=C2C(=O)NC(=S)NC2=O)cc1 | > 75.4 | > 100 | > 100 | > 100 | > 100 | > 100 | > 100 | > 100 | > 100 | > 100 | 45.2
CCn1c(SCC(=O)NNC(=S)NC)nc2ccccc2c1=O | > 100 | > 100 | > 100 | > 100 | > 100 | > 100 | > 100 | > 100 |  | > 100 | > 100
C/C1=C\C=C(\C(C)C)CC/C(C(=O)O)=C\CC/C(C)=C/CC1 | 79.9 | 65.9 | > 100 | > 100 | 45.9 | 47.9 | 53.8 | 63.6 | 99 | 25.8 | 41.4
CC1CC(=O)N(N(C)C)C(C#N)(C#N)C1(C#N)C#N (stereo not given) | 32.7 | 28.6 | 32.5 | 30.3 | 37 | > 77.4 | 31.3 | 42.9 | 38 | 39.3 | 26.6
CCOC(=O)C1=COC(C)(CCc2ccccc2)CC1=O (stereo not given) | > 100 | > 100 | > 100 | > 100 | > 100 | > 100 | > 100 | > 100 | > 100 | > 100 | > 100
O=C(CCc1ccccc1)ON1C(=S)C(c2ccccc2)(c2ccccc2)N=C1Sc1ccccc1 | > 100 | > 100 | > 100 | > 100 | > 100 | > 100 | > 100 | > 100 | > 100 | > 100 | > 100
Fc1cccc(F)c1C1SCc2nc3ccc(Cl)cc3n21 (stereo not given) | > 100 | > 100 | > 100 | > 100 | > 100 | > 100 | > 100 | > 100 | > 100 | > 100 | > 100
O=C1C(CN2CCOCC2)CCCC1CN1CCOCC1 (stereo not given) | 3.5 | 2.61 | 31.1 | 8.72 | 7.71 | 50.5 | 18.9 | 7.1 | 4.16 | 14.5 | 4.14
N#C/C(=C/NC(=S)c1ccncc1)C(N)=O | > 100 | > 100 | > 100 | > 100 | > 100 | > 100 | > 100 | > 100 | > 100 | > 100 | > 100
CNc1ncc(-c2nnnn2-c2ccccc2)c(CN(C)C)n1 | > 100 | > 100 | > 100 | > 100 | > 100 | > 100 | > 100 | > 100 | > 100 | > 100 | > 100
Cc1ccc2c(c1)C(=O)C(C1OC(=O)c3ccccc31)C2 (stereo not given) | > 100 | > 100 | > 100 | > 100 | > 100 | > 100 | > 100 | > 100 | > 100 | > 100 | > 100
